The values that follow come from patent US11168079B2, “Alkene compounds as farnesoid x receptor modulators” (BRISTOL-MYERS SQUIBB COMPANY, priority 2017, dated 2021).

Broadly, the EC50 is the concentration giving half of the maximal effect.

The target of the first assay is T1, human FXR (Homo sapiens, UniProt Q96RI1).
T1 sequence (Q96RI1 262-486 limits assumed): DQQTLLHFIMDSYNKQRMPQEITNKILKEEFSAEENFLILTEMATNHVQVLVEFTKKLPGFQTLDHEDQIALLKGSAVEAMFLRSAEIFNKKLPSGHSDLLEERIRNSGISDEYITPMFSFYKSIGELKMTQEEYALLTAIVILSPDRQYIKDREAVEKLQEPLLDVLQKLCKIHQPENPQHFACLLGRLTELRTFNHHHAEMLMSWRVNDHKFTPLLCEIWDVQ
In words: transient human FXR/Gal4-luciferase reporter assay (HLE GAL-FXR). As to conditions: FXR EC50 (nM), Gal4-hFXR fusion reporter, HEK293 cells; Table 1. On the technique in general: Reporter assays use an easily measured gene product as a stand-in for the process of interest.
Experimental: A Gal4-hFXR fusion construct reporter system was used as the primary assay to characterize compound activity. A construct including 5 copies of the Gal4 promoter response element upstream of a firefly luciferase reporter cDNA was stably expressed in HEK293 cells. This reporter cell line was maintained in Dulbecco's Modified Eagle's medium (DMEM; Gibco) supplemented with 1% penicillin-streptomycin (P/S) solution, 500 μg/mL Zeocin and 10% charcoal/dextran-treated fetal bovine serum (cs-FBS) at 37° C. in a humidified 5% CO2 atmosphere. Another plasmid was constructed in which the human cytomegalovirus promoter in the pcDNA3.1 vector directs the expression of the cDNA encoding a fusion protein comprised of the DNA binding domain from the Gal4 transcription factor fused to the ligand binding domain from human FXR.
For compound testing, 100 nL of the compounds (serial dilutions in DMSO) are dispensed with an Echo acoustic dispenser (Labcyte) into the wells of a Corning/Costar clear bottom 384-well white plate. The transfected cells are harvested, counted, and diluted such that 10-25,000 cells in 25 μL are plated into each well of the 384-well compound assay plate. The compound-treated cells are incubated overnight at 37° C. in a humidified 5% CO2 atmosphere. The next morning 25 μL of Steady-Glo (Promega) are added to each well of the plate, the mixture is incubated for 15 min. with shaking, and luminescence is measured on an Envision (Perkin Elmer) plate reader.
In the case of `O=C(O)c1cc(C(F)(F)F)c2cc(N3CC(/C=C/c4c(-c5c(Cl)cncc5Cl)noc4C4CC4)C3)ccc2n1` [Example 162], the EC50 stood at 150 nM.
On the same count and under the same terms, with `CCOc1cc(N2CC3C(/C=C/c4c(-c5ccccc5C(F)(F)F)noc4C4CC4)C3C2)cnc1C(=O)O` (stereo not drawn) [Example 163] the figure was 424 nM; with `COc1cc(-c2nc(N3CC4C(/C=C/c5c(-c6c(Cl)cncc6Cl)noc5C5CC5)C4C3)no2)cc(C(=O)O)n1` (stereo not drawn) [Example 164], 297 nM.
Still for that read-out and setting: the figure for `COc1cc(C(=O)O)nc2ccc(N3CC(/C=C/c4c(-c5c(Cl)cncc5Cl)noc4C4CC4)C3)cc12` [Example 166] is 29 nM; for `O=C(O)c1cnc2cc(N3CC(/C=C/c4c(-c5c(Cl)cncc5Cl)noc4C4CC4)C3)ccc2n1` [Example 167] it is 308 nM.
The compound `COc1c(C(=O)O)cccc1-c1nc(N2CC3C(/C=C/c4c(-c5c(Cl)cncc5Cl)noc4C4CC4)C3C2)no1` (stereo not drawn) [Example 168] came in with an EC50 of 1100 nM.
The compound `COc1cc(C(=O)O)nc2ccc(N3CC(/C=C/c4c(-c5cccnc5C(F)(F)F)noc4C4CC4)C3)cc12` [Example 169] returned a 50% effective concentration (EC50) of 223 nM.
Still for that read-out and setting: the figure for `O=C(O)c1cc(OC2CCC2)c2cc(N3CC(/C=C/c4c(-c5cccnc5C(F)(F)F)noc4C4CC4)C3)ccc2n1` [Example 170] is 50 nM.
On the same count and under the same terms, the figure for `COc1cc(C(=O)O)nc2ccc(N3CC(/C=C/c4c(-c5ccccc5C(F)(F)F)noc4C4CC4)C3)nc12` [Example 173] is 375 nM; for `O=C(O)c1cc(OC2CC2)c2cc(N3CC(/C=C/c4c(-c5cccnc5C(F)(F)F)noc4C4CC4)C3)ccc2n1` [Example 178] it is 37 nM.
On the same count and under the same terms, with `Cn1cc(C(=O)O)c(=O)c2ccc(N3CC4C(/C=C/c5c(-c6c(Cl)cncc6Cl)noc5C5CC5)C4C3)cc21` (stereo not drawn) [Example 180] the figure was 276 nM.
`Cn1cc(C(=O)O)c(=O)c2ccc(N3CC(/C=C/c4c(-c5ccccc5C(F)(F)F)noc4C4CC4)C3)cc21` [Example 181]: the EC50 came out at 400 nM.
The same measure, in the same setting: with `O=C(O)c1cc(OCC(F)F)c2cc(N3CC(/C=C/c4c(-c5ccccc5C(F)(F)F)noc4C4CC4)C3)ccc2n1` [Example 182] the figure was 72 nM; with `O=C(O)c1cc(O[C@H]2C[C@@H](F)C2)c2cc(N3CC4C(/C=C/c5c(-c6ccccc6C(F)(F)F)noc5C5CC5)C4C3)ccc2n1` (stereo partly drawn) [Example 185], 11 nM.
The same measure, in the same setting: the figure for `COCc1cc(C(=O)O)nc2ccc(N3CC(/C=C/c4c(-c5ccccc5C(F)(F)F)noc4C4CC4)C3)cc12` [Example 186] is 228 nM; for `O=C(O)c1cc(O[C@H]2C[C@@H](F)C2)c2cc(N3CC(/C=C/c4c(-c5ccccc5C(F)(F)F)noc4C4CC4)C3)ccc2n1` [Example 187] it is 348 nM.
The compound `O=C(O)c1cc(O[C@@H]2CCOC2)c2cc(N3CC(/C=C/c4c(-c5cccnc5C(F)(F)F)noc4C4CC4)C3)ccc2n1` [Example 188] displayed an EC50 of 1690 nM.
On the same count and under the same terms, with `O=C(O)c1cc(O[C@H]2CCOC2)c2cc(N3CC(/C=C/c4c(-c5cccnc5C(F)(F)F)noc4C4CC4)C3)ccc2n1` [Example 189] the figure was 650 nM; with `Cn1cc(C(=O)O)c(=O)c2ccc(N3CC4C(/C=C/c5c(-c6ccccc6C(F)(F)F)noc5C5CC5)C4C3)cc21` (stereo not drawn) [Example 190], 376 nM; with `CCn1cc(C(=O)O)c(=O)c2ccc(N3CC4C(/C=C/c5c(-c6ccccc6C(F)(F)F)noc5C5CC5)C4C3)cc21` (stereo not drawn) [Example 192], 132 nM.
Still for that read-out and setting: the figure for `O=C(O)c1cc(O[C@H]2CCOC2)c2cc(N3CC(/C=C/c4c(-c5ccccc5C(F)(F)F)noc4C4CC4)C3)ccc2n1` [Example 193] is 343 nM.
Still for that read-out and setting: with `O=C(O)c1cc(O[C@H]2C[C@H](F)C2)c2cc(N3CC(/C=C/c4c(-c5ccccc5C(F)(F)F)noc4C4CC4)C3)ccc2n1` [Example 194] the figure was 159 nM; with `O=C(O)c1cc(O[C@H]2C[C@@H](F)C2)c2cc(N3CC(/C=C/c4c(-c5cccnc5C(F)(F)F)noc4C4CC4)C3)ccc2n1` [Example 195], 286 nM; with `O=C(O)c1cc(OC2CC2)c2cc(N3CC(/C=C/c4c(-c5ccccc5C(F)(F)F)noc4C4CC4)C3)ccc2n1` [Example 196], 53 nM.
Turning to `COc1cc(C(=O)O)nc2c(F)cc(N3CC4C(/C=C/c5c(-c6c(Cl)cncc6Cl)noc5C5CC5)C4C3)cc12` (stereo not drawn) [Example 198], it took 71 nM to reach a half-maximal effect (EC50).
In the case of `O=C(O)c1cc(O[C@H]2C[C@H](F)C2)c2cc(N3CC4C(/C=C/c5c(-c6ccccc6C(F)(F)F)noc5C5CC5)C4C3)ccc2n1` (stereo partly drawn) [Example 199], the EC50 was 63 nM.
Still for that read-out and setting: with `O=C(O)c1cc(OCC(F)F)c2cc(N3CC4C(/C=C/c5c(-c6c(Cl)cncc6Cl)noc5C5CC5)C4C3)ccc2n1` (stereo not drawn) [Example 200] the figure was 21 nM.
The same measure, in the same setting: the figure for `Cn1cc(C(=O)O)c2ccc(N3CC(/C=C/c4c(-c5ccccc5C(F)(F)F)noc4C4CC4)C3)cc21` [Example 201] is 178 nM; for `[2H]C([2H])([2H])Oc1cc(C(=O)O)nc2ccc(N3CC4C(/C=C/c5c(-c6c(Cl)cncc6Cl)noc5C5CC5)C4C3)cc12` (stereo not drawn) [Example 202] it is 30 nM; for `O=C(O)c1cc(O[C@H]2C[C@@H](F)C2)c2cc(N3CC4C(/C=C/c5c(-c6c(Cl)cncc6Cl)noc5C5CC5)C4C3)ccc2n1` (stereo partly drawn) [Example 203] it is 16 nM.
On the same count and under the same terms, the figure for `O=C(O)c1cc(O[C@H]2C[C@H](F)C2)c2cc(N3CC4C(/C=C/c5c(-c6c(Cl)cncc6Cl)noc5C5CC5)C4C3)ccc2n1` (stereo partly drawn) [Example 204] is 19 nM; for `O=C(O)c1ccc(-c2ccc(N3CC(/C=C/c4c(-c5ccccc5C(F)(F)F)noc4C4CC4)C3)cc2)cc1` [Example 205] it is 189 nM.
Consider `COc1cc(C(=O)O)nc2ccc(N3CC(/C=C/c4c(-c5ccccc5OC(F)(F)F)noc4C4CC4)C3)cc12` [Example 206], for which a half-maximal response (EC50) required 216 nM.
On the same count and under the same terms, with `O=C(O)c1cccc(-c2ccc(N3CC(/C=C/c4c(-c5ccccc5C(F)(F)F)noc4C4CC4)C3)cc2)c1` [Example 207] the figure was 64 nM.
As to `Cn1cc(C(=O)O)c2ncc(N3CC4C(/C=C/c5c(-c6c(Cl)cncc6Cl)noc5C5CC5)C4C3)cc21` (stereo not drawn) [Example 209], a half-maximal response (EC50) required 472 nM.
`Cn1cc(C(=O)O)c2ncc(N3CC4C(/C=C/c5c(-c6ccccc6C(F)(F)F)noc5C5CC5)C4C3)cc21` (stereo not drawn) [Example 211] displayed an EC50 of 154 nM.
On the same count and under the same terms, the figure for `O=C(O)c1c2ccc(N3CC4C(/C=C/c5c(-c6c(Cl)cccc6Cl)noc5C5CC5)C4C3)cc2nn1CC1CC1` (stereo not drawn) [Example 212] is 21 nM; for `COc1cc(C(=O)O)nc2c(F)cc(N3CC(/C=C/c4c(-c5ccccc5C(F)(F)F)noc4C4CC4)C3)cc12` [Example 215] it is 199 nM; for `O=C(O)c1cc(OC2CC2)c2cc(N3CC(/C=C/c4c(-c5ccccc5OC(F)(F)F)noc4C(F)(F)F)C3)ccc2n1` [Example 217] it is 1400 nM.
On the same count and under the same terms, the figure for `O=C(O)c1cccc(-c2nnc(N3CC4C(/C=C/c5c(-c6c(Cl)cncc6Cl)noc5C5CC5)C4C3)o2)c1` (stereo not drawn) [Example 218] is 1600 nM.

The assay is the same for the next values; noted with them: HLE GAL-FXR EC50, Gal4-hFXR fusion reporter, HEK293 cells.
`NC(=O)c1cc(OC2CC2)c2cc(N3CC4C(/C=C/c5c(-c6ccccc6C(F)(F)F)noc5C5CC5)C4C3)ccc2n1` (stereo not drawn) [Example 183, (E)-4-Cyclopropoxy-6-(6-(2-(5-cyclopropyl-3-(2-(trifluoromethyl)phenyl)-isoxazol-4-yl)vinyl)-3-azabicyclo[3.1.0]hexan-3-yl)quinoline-2-carboxamide] yielded an EC50 of 908 nM.
On to `O=C(O)c1cc(OC2CC2)c2cc(N3CC4C(/C=C/c5c(-c6ccccc6C(F)(F)F)noc5C5CC5)C4C3)ccc2n1` (stereo not drawn) [Example 184, (E)-4-Cyclopropoxy-6-(6-(2-(5-cyclopropyl-3-(2-(trifluoromethyl)phenyl)-isoxazol-4-yl)vinyl)-3-azabicyclo[3.1.0]hexan-3-yl)quinoline-2-carboxylic acid], for which the response was half-maximal at 50 nM (EC50).
Same read-out and setting: the figure for `COc1cc(C(=O)O)cc(-c2csc(N3CC4C(/C=C/c5c(-c6c(Cl)cncc6Cl)noc5C5CC5)C4C3)n2)c1` (stereo not drawn) [Example 208, (E)-3-(2-(6-(2-(5-Cyclopropyl-3-(3,5-dichloropyridin-4-yl)isoxazol-4-yl)vinyl)-3-azabicyclo[3.1.0]hexan-3-yl)thiazol-4-yl)-5-methoxybenzoic acid] is 247 nM; for `COc1cc(C(=O)O)cc(-c2nc(N3CC4C(/C=C/c5c(-c6c(Cl)cncc6Cl)noc5C5CC5)C4C3)ns2)c1` (stereo not drawn) [Example 210, (E)-3-(3-(6-(2-(5-Cyclopropyl-3-(3,5-dichloropyridin-4-yl)isoxazol-4-yl)vinyl)-3-azabicyclo[3.1.0]hexan-3-yl)-1,2,4-thiadiazol-5-yl)-5-methoxybenzoic acid] it is 670 nM.
Same read-out and setting: with `COc1cc(C(=O)O)cc(-c2nsc(N3CC4C(/C=C/c5c(-c6c(Cl)cncc6Cl)noc5C5CC5)C4C3)n2)c1` (stereo not drawn) [Example 214, (E)-3-(5-(6-(2-(5-Cyclopropyl-3-(3,5-dichloropyridin-4-yl)isoxazol-4-yl)vinyl)-3-azabicyclo[3.1.0]hexan-3-yl)-1,2,4-thiadiazol-3-yl)-5-methoxybenzoic acid] the figure was 107 nM; with `COc1cc(C(=O)O)cc(-c2cnc(N3CC4C(/C=C/c5c(-c6c(Cl)cncc6Cl)noc5C5CC5)C4C3)s2)c1` (stereo not drawn) [Example 216, (E)-3-(2-(6-(2-(5-cyclopropyl-3-(3,5-dichloropyridin-4-yl)isoxazol-4-yl)vinyl)-3-azabicyclo[3.1.0]hexan-3-yl)thiazol-5-yl)-5-methoxybenzoic acid], 202 nM.

The same assay, now with this note: read-out: FXR EC50; Gal4-hFXR fusion reporter, HEK293 cells; Table 1.
On to `COc1cc(C(=O)O)cc(-c2nc(N3CC4C(/C=C/c5c(-c6c(Cl)cncc6Cl)noc5C5CC5)C4C3)no2)c1` (stereo not drawn) [Example 165], for which the EC50 turned out to be 222 nM.
Turning to `COCc1cc(C(=O)O)nc2ccc(N3CC(/C=C/c4c(-c5cccnc5C(F)(F)F)noc4C4CC4)C3)cc12` [Example 171], the EC50 turned out to be 65 nM.
